The values that follow come from patent publication US20140255968A1, “METHOD FOR FABRICATING A PATTERNED SUBSTRATE FOR A CELL CULTURE, A PATTERNED SUBSTRATE FOR CELL CULTURE, AND A CELL CHIP” (RESEARCH & BUSINESS FOUNDATION SUNGKYUNKWAN UNIVERSITY, priority 2013, published 2014).

This assay deals with bovine aortic endothelial cells (BAECs). Nature of the assay: Angiogenesis assay on patterned cell chip. In kind it is cell-based. As to the method:
In an angiogenesis assay using the fabricated substrate, bovine aortic endothelial cells (BAECs) were used. To prevent contamination, the substrate fabricated in Example 1-2 was placed in a Petri dish and irradiated with UV light for 16 hours prior to the test. BAEC cells were seeded in 2 ml of complete medium (low glucose DMEM (Dulbecco's Modified Eagle's Medium, WELGENE) containing 1× penicillin/streptomycine (WELGENE) and 20% fetal bovine serum (FBS, WELGENE)) at a cell concentration of 2.5×10^5 cells/ml, and then cultured in a 5% CO2 incubator at 37° C. for 6 hours. Next, the complete medium was replaced with the following media. • untreated plate (normal control group): 10 ml of low-glucose DMEM containing 1× penicillin/streptomycin and 0.2% FBS; • LPS (lipopolysaccharide)-treated plate (negative control group): 10 ml of low-glucose DMEM containing 1× penicillin/streptomycin, 0.2% FBS and 100 ng/ml of LPS; or • VEGF (vascular endothelial growth factor)-treated plate (positive control group): 10 ml of low-glucose DMEM containing 1× penicillin/streptomycin, 0.2% FBS and 100 ng/ml of VEGF. To prevent cells on the substrate from being dried due to evaporation of the media in the incubator, the volume of the media was increased to 10 ml, and to more accurately confirm the effect of the positive control group (VEGF-treated plate), starvation basic medium having a decreased FBS (a kind of growth factor) concentration of 0.2% was used.

Where [1] appears, read: 100 ng/ml in low-glucose DMEM with 0.2% FBS, 18 hours, optical microscope.

Entries after “also recorded” stand apart in the source; their conditions may differ. Like-named read-outs stand apart in the source and are kept apart here.

lipopolysaccharide [LPS]: under setting [1], the “angiogenesis on the patterned cell chip compared with the untreated case” value was “angiogenesis was inhibited” and the “number of cells in the regions between cell adsorbing H2/He plasma treated areas, compared with untreated” value is “significant decrease in the number of cells; also recorded: smaller number of cells”.
On to “vascular endothelial growth factor [VEGF]”, for which the “angiogenesis on the patterned cell chip compared with the untreated case” value was “angiogenesis was induced and promoted”. Moreover, under setting [1], the “formation of tube-shaped blood vessels” value was “tube-shaped blood vessels were newly formed” and the “number of cells in the regions between cell adsorbing H2/He plasma treated areas, compared with untreated” value is “proliferation of cells significantly increased; also recorded: significantly larger number of the cells”.
